Earlier results in patent US20230001221A1, “Methods of Treating Cancer with Alternating Electric Fields, Checkpoint Inhibitors, and Combination Chemotherapy” (Novocure GmbH, priority 2021, published 2023).

What was measured:
[1] = tested on: tumor growth; settings: in-vivo, TTFields added to the chemotherapy
[2] = tested on: human and murine pancreatic cancer cell lines; settings: in-vitro, TTFields combined with the chemotherapy

SMILES | inhibition of tumor growth [1] | cytotoxicity when combined with TTFields [2]
O=c1[nH]cc(F)c(=O)[nH]1 [5-FU, fluorouracil] | significant inhibition of tumor growth | 
CCc1c2c(nc3ccc(OC(=O)N4CCC(N5CCCCC5)CC4)cc13)-c1cc3c(c(=O)n1C2)COC(=O)[C@]3(O)CC [irinotecan] |  | enhanced cytotoxicity
Nc1ccn([C@@H]2O[C@H](CO)[C@@H](O)C2(F)F)c(=O)n1 [gemcitabine] | significant inhibition of tumor growth | enhanced cytotoxicity
